Results reported in US11098040B2, “Compounds and methods of use” (Ferro Therapeutics, Inc., priority 2018, dated 2021).
Like-named read-outs stand apart in the source and are kept apart here.

How the values were obtained:
[1] = tested on: KP4; test: Cell viability assay (CellTiter Glo), pancreatic ductal adenocarcinoma KP4; assay type: cell-based, human; conditions: pancreatic cancer cell line KP4, 96 hours, CellTiter Glo, read-out: IC50 μM KP4
Summary of the method: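 KP4 cells seeded at 1,000–10,000 per well, treated 96 h with 9-point 3-fold dilutions from 30 μM top (4.6 nM–30 μM, duplicates; ≤0.25% DMSO). Viability by CellTiter Glo luminescence; % inhibition relative to DMSO-only wells, giving IC50, relative IC50 or % top inhibition.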

[2] = Whole blood stability, mouse; assay type: in vitro ADME
Excerpt: (§1) The results of the assay on stability in blood and IC50 values for pancreatic cancer cell line KP4 are given below in Table 24.

[3] = Whole blood stability, human; assay type: in vitro ADME
Excerpt: as §1

Molecule | IC50 ([1]; Homo sapiens, KP-4, 96 h) | Whole Blood Stability % Remaining at 37° C. Mouse ([2]; 0 min) | Whole Blood Stability % Remaining at 37° C. Mouse ([2]; 30 min) | Whole Blood Stability % Remaining at 37° C. Mouse ([2]; 60 min) | Whole Blood Stability % Remaining at 37° C. Human ([3]; 0 min) | Whole Blood Stability % Remaining at 37° C. Human ([3]; 30 min) | Whole Blood Stability % Remaining at 37° C. Human ([3]; 60 min) | IC50 [1]
COC(=O)[C@H]1Cc2c([nH]c3ccccc23)[C@@H](c2ccc(C(=O)N3CCC(O)CC3)cc2)N1C(=O)CCl [Compound 32a] | > 1 µM | 100.0% | 0.0% | 0.0% | 100.0% | 1.9% | 0.9% | 
CN(C)C(=O)[C@H]1Cc2c([nH]c3ccccc23)[C@@H](c2ccc([Si](C)(C)C)cc2)N1C(=O)CCl [Compound 67a] | > 1 µM | 100.0% | 52.4% | 18.2% | 100.0% | 35.5% | 15.5% | 
COC(=O)[C@H]1Cc2c([nH]c3ccccc23)[C@H](c2ccc(C(=O)NC(C)(C)C)cc2)N1C(=O)CCl [Compound 9] | < 0.01 µM | 100.0% | 61.9% | 40.6% | 100.0% | 53.8% | 47.0% | 
CC(C)OC(=O)[C@H]1Cc2c([nH]c3ccccc23)[C@H](c2ccc(C(=O)OC(C)(C)C)cc2)N1C(=O)CCl [Compound 20] | < 0.01 µM | 100.0% | 39.9% | 19.1% | 100.0% | 50.7% | 41.6% | 
CN(C)C(=O)[C@H]1Cc2c([nH]c3ccccc23)[C@H](C2CCN(C(=O)OC(C)(C)C)CC2)N1C(=O)CCl [Compound 42] | > 1 µM | 100.0% | 72.9% | 62.0% | 100.0% | 46.2% | 28.5% | 
COC(=O)[C@H]1Cc2c([nH]c3ccccc23)[C@H](c2ccc(C(=O)N(C)C)cc2)N1C(=O)CCl [Compound 8] | < 0.01 µM | 100.0% | 53.0% | 30.5% | 100.0% | 52.0% | 26.5% | 
COC(=O)[C@H]1Cc2c([nH]c3ccccc23)[C@H](c2ccc(C(=O)OCC3(C)CC3)cc2)N1C(=O)CCl [Compound 84] | < 0.01 µM | 100.0% | 0.0% | 0.0% | 100.0% | 87.7% | 58.3% | 
COC(=O)[C@H]1Cc2c([nH]c3ccccc23)[C@H](c2ccc(C(=O)NCCN3CCOCC3)cc2)N1C(=O)CCl [Compound 27] | 0.01 to 0.1 µM | 100.0% | 78.2% | 73.2% | 100.0% | 63.9% | 48.3% | 
COC(=O)c1ccc([C@H]2c3sc4ccccc4c3C[C@H](C(=O)OC)N2C(=O)CCl)cc1 [Example 55c] | 0.01 to 0.1 µM | 100.0% | 0.0% | 0.0% | 100.0% | 46.0% | 27.5% | 
CN(C)C(=O)[C@H]1Cc2c([nH]c3ccccc23)[C@H](c2ccc(NC(=O)OC(C)(C)C)cc2)N1C(=O)CCl [Compound 56] | 0.01 to 0.1 µM | 100.0% | 84.1% | 38.9% | 100.0% | 59.3% | 60.7% | 
CC(=O)Nc1ccc([C@@H]2c3[nH]c4ccccc4c3C[C@H](C(=O)N(C)C)N2C(=O)CCl)cc1 [Compound 71a] | > 1 µM | 100.0% | 76.5% | 43.8% | 100.0% | 54.9% | 25.7% | 
COC(=O)[C@H]1Cc2c([nH]c3ccccc23)[C@H](c2ccc(C(=O)OC(C)(C)C)cc2)N1C(=O)/C=C/CCl [Compound 25] | 0.1 to 0.5 µM | 100.0% | 46.2% | 24.4% | 100.0% | 55.0% | 51.9% | 
COC(=O)[C@H]1Cc2c([nH]c3ccccc23)[C@H](c2ccc(C(=O)NCC3CC3)cc2)N1C(=O)CCl [Compound 81] | < 0.01 µM | 100.0% | 64.2% | 39.8% | 100.0% | 48.0% | 40.6% | 
CN(C)C(=O)[C@H]1Cc2c([nH]c3ccccc23)[C@H](c2ccc(S(=O)(=O)N3CCC(O)CC3)cc2)N1C(=O)CCl [Compound 49] | > 1 µM | 100.0% | 82.5% | 52.5% | 100.0% | 43.0% | 13.7% | 

The remaining lines, values ahead:

IC50 ([1]; Homo sapiens, KP-4, 96 h) | Whole Blood Stability % Remaining at 37° C. Mouse ([2]; 0 min) | Whole Blood Stability % Remaining at 37° C. Mouse ([2]; 30 min) | Whole Blood Stability % Remaining at 37° C. Mouse ([2]; 60 min) | Whole Blood Stability % Remaining at 37° C. Human ([3]; 0 min) | Whole Blood Stability % Remaining at 37° C. Human ([3]; 30 min) | Whole Blood Stability % Remaining at 37° C. Human ([3]; 60 min) | IC50 [1] | Molecule
< 0.01 µM | 100.0% | 0.0% | 0.0% | 100.0% | 69.6% | 44.1% |  | COC(=O)c1ccc([C@H]2c3[nH]c4c(Br)cccc4c3C[C@H](C(=O)OC)N2C(=O)CCl)cc1 [Compound 97]
> 1 µM | 100.0% | 0.0% | 0.0% | 100.0% | 0.1% | 0.1% |  | COC(=O)[C@H]1Cc2c([nH]c3ccccc23)[C@H](c2ccc(C(=O)N3CCC(O)CC3)cc2)N1C(=O)CCl [Compound 32]
< 0.01 µM | 100.0% | 0.5% | 0.0% | 100.0% | 54.1% | 27.5% |  | COC(=O)c1ccc([C@H]2c3[nH]c4ccccc4c3C[C@H](C)N2C(=O)CCl)cc1 [Compound 77]
< 0.01 µM | 100.0% | 89.5% | 2.4% | 100.0% | 85.1% | 92.7% |  | COC(=O)c1ccc([C@H]2c3[nH]c4ccc(OC)cc4c3C[C@H](C)N2C(=O)CCl)cc1 [Compound 113]
 | 100.0% | 0.0% | 0.0% | 100.0% | 70.1% | 51.1% | < 0.01 µM | (1S,3R)-RSL3-alkyne [Compound BX, reference compound]
< 0.01 µM | 100.0% | 55.5% | 34.4% | 100.0% | 48.9% | 30.8% |  | COC(=O)[C@H]1Cc2c([nH]c3ccccc23)[C@H](c2ccc(S(=O)(=O)N(C)C)cc2)N1C(=O)CCl [Compound 23]
0.5 to 1 µM | 100.0% | 82.3% | 60.4% | 100.0% | 42.6% | 16.7% |  | CN(C)C(=O)c1ccc([C@@H]2c3sc4ccccc4c3C[C@H](C(=O)N(C)C)N2C(=O)CCl)cc1 [Compound 55a]
0.1 to 0.5 µM | 100.0% | 0.0% | 0.0% | 100.0% | 44.3% | 14.7% |  | COC[C@H]1Cc2c([nH]c3ccccc23)[C@@H](c2ccc(C(=O)OC(C)(C)C)cc2)N1C(=O)CCl [Compound 64]
